Results from US12133855B2, “Lipid-like nanocomplexes and uses thereof” (Trustees of Tufts College, priority 2018, dated 2024).

Columns and labels:
[1] = tested on: B16F10 (mouse melanoma cells); assay: GFP mRNA delivery (GFP+ cells); format: cell-based; settings: LNP/mRNA=10/1, [mRNA]=0.86 μg mL^−1, 24 h
Experimental: (§1) To examine the delivery spectrum of the newly developed LNPs, the GFP mRNA loaded OCholB LNPs were then challenged against other four types of cell lines. B16F10 (mouse melanoma cells), HEK 293 (human embryonic kidney cells), NIH 3T3 (mouse embryonic fibroblast cells) and Jurkat (human T lymphocyte cells) cells were tested (LNP/mRNA=10/1; [mRNA]=0.86 μg mL^−1; 24 h exposure) and the results are shown in FIG. 14D. As the positive control, Lpf2k turned out to be very efficient to deliver GFP mRNA into B16F10 (63.2% of GFP^+ cells), HEK 293 (80.1%) and NIH 3T3 (70.1%) cells, while slightly less efficient to Jurkat cell (28.7%), which is usually considered to be one of the most difficult-to-transfect cell lines. […] For example, 63.0%, 60.9%, 54.1% and 50.1% of GFP^+ cells were determined from mRNA/75-OCholB treated B16F10, HEK 293, NIH 3T3 and Jurkat cells; and the numbers for mRNA/76-OCholB treated cells were 70.7%, 75.8%, 24.1% and 7.7%, respectively. It was obvious that not only the types of lipidoids, but also the target cell lines could have huge impacts on the delivery efficacy. Overall, the positive control, Lpf2k, is a relatively high-activity broad-spectrum transfection reagent; most of the OCholB LNPs (6 out of 9) are also effective broad-spectrum transfection reagents under the tested conditions. […] It was expected that through further formulation optimization, such as adding excipients (helper lipids like small molecular phospholipids (e.g. DOPE and DSPC) and macromolecules lipids (e.g. PEG-DSPE and PEG-Ceramide)) into the LNPs and/or using more controllable self-assembly procedures, improved transfection efficiency of the fully substituted OCholB LNPs could be achieved.

[2] = tested on: HEK 293 (human embryonic kidney cells); assay: GFP mRNA delivery (GFP+ cells); format: cell-based; settings: LNP/mRNA=10/1, [mRNA]=0.86 μg mL^−1, 24 h
Experimental: as §1

[3] = tested on: NIH 3T3 (mouse embryonic fibroblast cells); assay: GFP mRNA delivery (GFP+ cells); format: cell-based; settings: LNP/mRNA=10/1, [mRNA]=0.86 μg mL^−1, 24 h
Experimental: as §1

[4] = TEM size of lipidoid nanoparticles; format: physicochemical; settings: TEM images of LNPs
Experimental: All chemicals used for lipidoids synthesis were purchased from Sigma-Aldrich without further purification unless otherwise noted. (−30)GFP-Cre recombinase, S. pyogenes Cas9 (spCas9) and sgRNA were generated following the protocols reported in Wang at al., Proc. Natl. Acad. Sci. USA, 2016, 113, 2868-2873 (“Wang”). HeLa-DsRed and GFP-HEK cells were cultured in Dulbecco's modified eagle's medium (DMEM, Sigma-Aldrich) with 10% fetal bovine serum (FBS, Sigma-Aldrich) and 1% penicillin-streptomycin (Gibco). All ^1H NMR spectra were recorded on a Bruker AVIII 500 MHz NMR spectrometer operated in the Fourier transform mode. Hydrodynamic size and polydispersity index of nanoparticles were measured by Zeta-PALS particle size analyzer (Brookhaven Instruments). The apparent pKa values of lipidoids were determined using 2-(p-toluidinynaphthalene-6-sulphonic acid) (TNS, Sigma-Aldrich) as fluorescent probe following the protocols reported in Heyes et al., J. Controlled Release, 2005, 107, 276-287. TEM measurements were performed on a FEI Technai Transmission Electron Microscope. Fluorescence images of tissue slices were obtained using BZ-X Analyzer fluorescence microscope.
The morphologies of LNPs were further studied by the transmission electron microscopy (TEM). […] Subsequently, the stability of LNPs thus prepared was examined by DLS and fluorescence measurements.
The morphologies of OCholB fully substituted LNPs were then examined by transmission electron microscopy (TEM). […] In contrast, the vesicular structures were not well-formed for 87-OCholB and 90-OCholB compared to their counterparts, and amorphous aggregates were observed instead.

Ai14 mice = assay: In vivo genome editing, intravenous injection, tdTomato expression; design: species or system mouse; settings: day 14
Experimental: Similar to the in vitro transfection study, lipidoid nanoparticles were prepared for mRNA or protein loading and in vivo delivery. Ai14 mice were housed in a temperature and humidity controlled facility with a 12 h light/dark cycle. Three mice in each group were injected (intravenously or intramuscularly) with Cre mRNA-loaded or (−30)GFP-Cre protein-loaded LNPs formulations. Organs including heart, liver, spleen, lung and kidney from all groups were collected at day 10 (intramuscular injection) or 14 (intravenous injection) after injection. The tissues were fixed overnight in 4% paraformaldehyde (PFA) and dehydrated in 30% sucrose before being froze in OCT and sectioned into 10-15 μm slices. The slices were then collected and stained with DAPI for fluorescence imaging (BZ-X Analyzer fluorescence microscopy).
Cre-loxP system and transgenic Ai14 mouse model were used in the in vivo genome editing study. […] When the Cre recombinase mediated gene reorganization occurs, the STOP cassette could be removed, resulting in the expression of fluorescent tdTomato reporter protein.
The OCholB LNPs was further investigated if they can induce successful gene editing in vivo through a systemic administration pathway. At first, Ai14 mice (n=3) were injected through tail vein (intravenous (IV) injection) with (−30)GFP-Cre protein loaded LNPs at day 1 and 5 (50 μg protein for each injection; 100 μg in total), then sacrificed at day 14 for analysis (FIG. 17C). […] The heart, liver, spleen, lung and kidney from each group were collected and analyzed. […] Like most intravenous nano-therapeutics, the (−30)GFP-Cre protein complexed OCholB nanoparticles injected through tail vein would travel first to the heart, and from there directly to the lung. The nanoparticle formulations (which may have complexed with serum proteins) could be easily trapped in the vasculature structures in the capillary bed of the lung, delaying or inhibiting the redistribution of LNPs to the liver, spleen and other organs. During the in vivo transport and redistribution process, some of the protein loaded LNPs may successfully enter into the cells in lung or spleen to induce the genome editing and tdTomato expression cascade. Degradation, aggregation and/or immune cells sequestration of the cargo protein and carrier LNPs would dramatically reduce or perhaps even prohibit genome editing events.
Next, in vivo systemic mRNA delivery using OCholB LNPs was tested using a similar intravenous injection protocol (FIG. 17C). Cre mRNA loaded 76-OCholB LNPs were injected at day 1 and day 5 (10 μg mRNA for each injection; 20 μg in total), and mice were sacrificed at day 14. All the major organs (heart, liver, spleen, lung and kidney) were collected and analyzed. […]

[5] = (−30)GFP-Cre loaded, IV day 1 and 5, 50 μg protein each
[6] = Cre mRNA loaded, IV day 1 and 5, 10 μg mRNA each

Row | Structure (SMILES) | GFP^+ cells [1] [%] | GFP^+ cells [2] [%] | GFP^+ cells [3] [%] | size measured by TEM [4] [nm] | also measured
1 | CCN(CC)CCN(CCC(=O)OCCSSCCNC(=O)OC1CCC2(C)C(=CCC3C2CCC2(C)C(C(C)CCCC(C)C)CCC32)C1)CCC(=O)OCCSSCCNC(=O)OC1CCC2(C)C(=CCC3C2CCC2(C)C(C(C)CCCC(C)C)CCC32)C1 (stereo not drawn) [Lipidoid 75-OCholB] | 63.0 | 60.9 | 54.1 |  | 
2 | CC(C)CCCC(C)C1CCC2C3CC=C4CC(OC(=O)NCCSSCCOC(=O)CCN(C)CCN(CCN(C)CCC(=O)OCCSSCCNC(=O)OC5CCC6(C)C(=CCC7C6CCC6(C)C(C(C)CCCC(C)C)CCC76)C5)CCN(C)CCC(=O)OCCSSCCNC(=O)OC5CCC6(C)C(=CCC7C6CCC6(C)C(C(C)CCCC(C)C)CCC76)C5)CCC4(C)C3CCC12C (stereo not drawn) [Lipidoid 304-OCholB] |  |  |  | 394.0 | 
3 | CC(C)CCCC(C)C1CCC2C3CC=C4CC(OC(=O)NCCSSCCOC(=O)CCN(CCC(=O)OCCSSCCNC(=O)OC5CCC6(C)C(=CCC7C6CCC6(C)C(C(C)CCCC(C)C)CCC76)C5)CCN5CCCC5)CCC4(C)C3CCC12C (stereo not drawn) [Lipidoid 76-OCholB] | 70.7 | 75.8 | 24.1 |  | genome editing efficacy in the spleen (Ai14 mice; [5]): Relative high genome editing efficacy; tdTomato positive cells in the spleen (Ai14 mice; [6]): significant amount of tdTomato positive cells; tdTomato signals in other organs (heart, liver, lung, kidney) (Ai14 mice; [6]): positive signals were not found
4 | CC(C)CCCC(C)C1CCC2C3CC=C4CC(OC(=O)NCCSSCCOC(=O)CCN(CCCN(C)C)CCC(=O)OCCSSCCNC(=O)OC5CCC6(C)C(=CCC7C6CCC6(C)C(C(C)CCCC(C)C)CCC76)C5)CCC4(C)C3CCC12C (stereo not drawn) [Lipidoid 80-OCholB] |  |  |  |  | genome editing efficacy in the lung (Ai14 mice; [5]): Relative high genome editing efficacy
5 | CCN(CC)CCCN(CCC(=O)OCCSSCCNC(=O)OC1CCC2(C)C(=CCC3C2CCC2(C)C(C(C)CCCC(C)C)CCC32)C1)CCC(=O)OCCSSCCNC(=O)OC1CCC2(C)C(=CCC3C2CCC2(C)C(C(C)CCCC(C)C)CCC32)C1 (stereo not drawn) [Lipidoid 81-OCholB] |  |  |  | 216.9 | 
